The source of these data is patent US8361968B2 (Takeda Pharmaceutical Company Limited, priority 2002, dated 2013).

Data set [1] has as its system hOT7T175-expressed CHO cells. The format is cell-based. The method, then:
Assay for Cell Growth Inhibition Activity in hOT7T175-Expressed Cho Cells hOT7T175-Expressed CHO cells (hereinafter hOT7T175) were cultured in DMEM supplemented with 10% dialyzed FBS (hereinafter 10% dFBS/DMEM), which was used for the following assay. The hOT7T175 was suspended in 10% dFBS/DMEM at 10,000 cells/ml. The cells were plated on a 96 well plate at 100 μL each/well (1,000 cells/well), followed by culturing overnight at 37° C. in a 5% CO2 incubator. On the following day, the medium was removed and 90 μL of 10% dFBS/DMEM supplemented with 0.5% BSA (hereinafter, 0.5% BSA/10% dFBS/DMEM) was added. […] After 10 μL of Cell Counting Kit-8 solution (Dojin Chemical Laboratory) was added to each well, incubation was performed at 37° C. in a 5% CO2 incubator for 4 hours and absorbance was measured at 450 nm.

Data set [2] is described as follows: Stability of compound in blood (mouse serum, half life). Conditions: female, Balb/c.
Description: (§1) Blood was drawn from Balb/c mice (female) of 8 weeks old, settled at 37° C. for 30 minutes and centrifuged at 13000 rpm for 10 minutes to give the serum as the supernatant. The serum thus obtained was frozen-stored at −80° C.
(§2) The stability test was performed by addition of 5 nmol of Compound (5 μL of aqueous solution) to 45 μL of serum and then settlement of the mixture at 37° C. The settlement was made at 3 points of time, including 2, 10 and 30 minutes. The sample after the settlement was boiled for 3 minutes and cooled on an ice bath. After 200 μL of acetonitrile/water (3/1) was added to the sample, the mixture was ultrasonicated for 5 minutes and then centrifuged at 5000 rpm for 1 minute. After 150 μL of the supernatant was diluted with 250 μL of distilled water, insoluble matters were removed by filtration through a filter having a pore size of 0.45 μm and 200 μL of the filtrate was applied on HPLC (220 nm) to determine the peak area of Compound. A ratio of the peak area to the area when Compound was treated for 0 minute under the same conditions was calculated as a mean value in 4 respective runs to determine the residual ratio. Next, by taking the calculated residual ratio on the ordinate and the time on the abscissa, a graph was prepared and approximated by an exponential function.
(§3) The preparative HPLC used was the LC-VP series manufactured by Shimadzu Corporation and Wakosil-II 5C18 HG (4.6 mm×100 mm) manufactured by Wako Pure Chemical Industries, Ltd. was used as the column. Eluant A (0.1% TFA-containing water) and eluant B (0.1% TFA-containing acetonitrile) were used as eluants. Analysis was performed by linear density gradient elution (25 minutes) at a flow rate of 1.0 ml/min. using eluants A/B: 100/0-0/50.
Data set [3] addresses T1, hOT7T175 (Homo sapiens, UniProt Q969F8, L364H). Kind of data set: Intracellular Ca ion level-increasing activity using FLIPR in hOT7T175/CHO. The arrangement: expressed in transfected cells; host or cells: CHO/dhfr- cells, obtained from ATCC. The format is cell-based. Conditions: relative, Metastin (1-54) = 1.
The nature of another data set: in vitro. The conditions noted are these: female, Balb/c, mouse, serum.
The target of data set [4] is T1, hOT7T175. Kind of data set: hOT7T175 receptor binding activity: binding inhibition of Cy-5-labeled metastin (40-54) on hOT7T175-expressed CHO cells. On the set-up: expressed in transfected cells; host or cells: CHO cells.
Setting [5] is: hOT7T175-expressed CHO cells, 3 days culture, Cell Counting Kit-8, read-out: IC50 (M), cell growth inhibition activity.

Molecules are shown by their SMILES. Like-named read-outs stand apart in the source and are kept apart here. Numbered stars: 1 amine (or outer) side, 2 acyl side, 3 side chain; on linkers, the order of the positions; unused ones are H or OH. Square brackets hold non-standard residues; d marks the D form. Peptide text beside a SMILES is read from it. X11 = O=C(CNC(=S)[C@H](Cc1ccccc1)N[*:1])[*:2]; Arg(Me) = CNC(=N)NCCC[C@H](N)C(=O)O; 4Pal = N[C@@H](Cc1ccncc1)C(=O)O; azaGly = NNC(=O)O

T1 sequence (Q969F8 whole entry L364H): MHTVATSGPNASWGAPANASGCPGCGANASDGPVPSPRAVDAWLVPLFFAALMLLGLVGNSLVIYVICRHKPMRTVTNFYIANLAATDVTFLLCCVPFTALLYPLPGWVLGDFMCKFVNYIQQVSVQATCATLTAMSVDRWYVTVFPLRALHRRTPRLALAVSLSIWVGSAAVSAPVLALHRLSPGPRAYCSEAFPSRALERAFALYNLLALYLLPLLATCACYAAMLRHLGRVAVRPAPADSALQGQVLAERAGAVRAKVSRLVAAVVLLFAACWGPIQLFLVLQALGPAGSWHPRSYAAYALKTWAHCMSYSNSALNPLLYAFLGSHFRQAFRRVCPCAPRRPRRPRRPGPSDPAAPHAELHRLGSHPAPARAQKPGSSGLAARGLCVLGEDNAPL
Description for in vitro: as §1, §2, §3

The term IC50 denotes the concentration that inhibits the measured activity by half. In data set [1], `CC[C@H](C)[C@H](NC(=O)[C@H](CCC(N)=O)NC(=O)[C@H](CCCNC(=N)N)NC(=O)[C@H](CO)NC(=O)[C@H](Cc1c[nH]cn1)NC(=O)[C@@H]1CCCN1C(=O)[C@H](C)NC(=O)[C@H](CO)NC(=O)[C@H](CC(C)C)NC(=O)CNC(=O)[C@@H]1CCCN1C(=O)[C@H](CCC(N)=O)NC(=O)[C@H](CCC(N)=O)NC(=O)[C@H](CCCNC(=N)N)NC(=O)[C@H](CO)NC(=O)CNC(=O)[C@H](CO)NC(=O)[C@H](CO)NC(=O)[C@H](CCC(=O)O)NC(=O)[C@@H]1CCCN1C(=O)[C@@H]1CCCN1C(=O)[C@@H]1CCCN1C(=O)[C@H](CO)NC(=O)[C@H](CC(C)C)NC(=O)[C@H](CO)NC(=O)[C@@H](NC(=O)CN)[C@@H](C)O)C(=O)N1CCC[C@H]1C(=O)N[C@@H](C)C(=O)N1CCC[C@H]1C(=O)N[C@@H](CCC(N)=O)C(=O)NCC(=O)N[C@@H](C)C(=O)N[C@H](C(=O)N[C@@H](CC(C)C)C(=O)N[C@H](C(=O)N[C@@H](CCC(N)=O)C(=O)N[C@@H](CCCNC(=N)N)C(=O)N[C@@H](CCC(=O)O)C(=O)N[C@@H](CCCCN)C(=O)N[C@@H](CC(=O)O)C(=O)N[C@@H](CC(C)C)C(=O)N1CCC[C@H]1C(=O)N[C@@H](CC(N)=O)C(=O)N[C@@H](Cc1ccc(O)cc1)C(=O)N[C@@H](CC(N)=O)C(=O)N[C@@H](Cc1c[nH]c2ccccc12)C(=O)N[C@@H](CC(N)=O)C(=O)N[C@@H](CO)C(=O)N[C@@H](Cc1ccccc1)C(=O)NCC(=O)N[C@@H](CC(C)C)C(=O)N[C@@H](CCCNC(=N)N)C(=O)N[C@@H](Cc1ccccc1)C(N)=O)C(C)C)C(C)C` [1-54] had an IC50 of 2.12e-07 M.

In the case of `CC(C)C[C@H](NC(=O)CNC(=O)[C@H](Cc1ccccc1)NC(=O)[C@H](CO)NC(=O)[C@H](CC(N)=O)NC(=O)[C@H](Cc1c[nH]c2ccccc12)NC(=O)[C@H](CC(N)=O)NC(=O)[C@@H](N)Cc1ccc(O)cc1)C(=O)N[C@@H](CCCNC(=N)N)C(=O)N[C@@H](Cc1ccccc1)C(N)=O` [45-54], the IC50 in data set [1] (setting [5]) was determined as 8.51e-06 M.

By half-life is commonly meant how long it takes for the measured level to halve. A high value points to slow decline. For `CC(C)C[C@H](NC(=O)CNC(=O)[C@H](Cc1ccccc1)NC(=O)[C@H](CO)NC(=O)[C@H](CC(N)=O)NC(=O)[C@H](Cc1c[nH]c2ccccc12)NC(=O)[C@H](CC(N)=O)NC(=O)[C@@H](N)Cc1ccc(O)cc1)C(=O)N[C@@H](CCCNC(=N)N)C(=O)N[C@@H](Cc1ccccc1)C(N)=O` [Compound No. 3, reference compound], the half-life at 100 µM in data set [2] came out at 0.6 min. Also, on hOT7T175 [3], the “Specific Activity (intracellular Ca ion level-increasing activity)” value came to 10.

In data set [2], `CC(C)C[C@H](NC(=O)CNC(=O)[C@H](Cc1ccccc1)NC(=O)[C@H](CO)NC(=O)[C@H](CC(N)=O)NC(=O)[C@H](Cc1c[nH]c2ccccc12)NC(=O)[C@H](CC(N)=O)NC(=O)[C@H](N)Cc1ccc(O)cc1)C(=O)N[C@@H](CCCNC(=N)N)C(=O)N[C@@H](Cc1ccccc1)C(N)=O` [Compound No. 42] came in with a half-life at 100 µM of 0.7 min. The “Specific Activity (intracellular Ca ion level-increasing activity)” value on hOT7T175 [3] is 30.

For `CC(C)C[C@H](NC(=O)CNC(=O)[C@H](Cc1ccccc1)NC(=O)[C@H](CO)NC(=O)[C@H](CC(N)=O)NC(=O)[C@H](Cc1c[nH]c2ccccc12)NC(=O)[C@H](CC(N)=O)NC(=O)[C@@H](N)Cc1ccc(O)cc1)C(=O)N[C@@H](CCCNC(=N)N)C(=O)N[C@@H](Cc1c[nH]c2ccccc12)C(N)=O` [Compound No. 134] (H-YNWNSFGLRW-NH2), the “Specific Activity (intracellular Ca ion level-increasing activity)” value at hOT7T175 [3] is recorded as 30. The molecule further yielded a half-life at 100 µM in the data set “in vitro” of 2.4 min. For the same molecule, the half-inhibitory concentration (IC50) at hOT7T175 [4] came out at 110 nM.

Turning to `CNC(=N)NCCC[C@H](NC(=O)[C@H](CC(C)C)NC(=O)CNC(=O)[C@H](Cc1ccccc1)NC(=O)[C@H](CO)NC(=O)[C@H](CC(N)=O)NC(=O)[C@H](Cc1c[nH]c2ccccc12)NC(=O)[C@H](CC(N)=O)NC(=O)[C@H](N)Cc1ccc(O)cc1)C(=O)N[C@@H](Cc1ccccc1)C(N)=O` [Compound No. 141], the “Specific Activity (intracellular Ca ion level-increasing activity)” value on hOT7T175 [3] is reported as 10. The same molecule displayed an IC50 in data set [1] of 8.7e-08 M. In addition, the half-life at 100 µM in “in vitro” turned out to be 8.7 min.

`CNC(=N)NCCC[C@H](NC(=O)[C@H](CC(C)C)NC(=O)NNC(=O)[C@H](Cc1ccccc1)NC(=O)[C@H](CO)NC(=O)[C@H](CC(N)=O)NC(=O)[C@H](Cc1c[nH]c2ccccc12)NC(=O)[C@H](CC(N)=O)NC(=O)[C@H](N)Cc1ccc(O)cc1)C(=O)N[C@@H](Cc1ccccc1)C(N)=O` [Compound No. 232, D-Tyr-Asn-Trp-Asn-Ser-Phe-AzaGly-Leu-Arg(Me)-Phe-NH2]: the “Specific Activity (intracellular Ca ion level-increasing activity)” value on hOT7T175 [3] is given as 3. The IC50 in data set [1] turned out to be 9.67e-09 M; at hOT7T175 [4], 49 nM. In addition, the half-life at 100 µM in the data set “in vitro” is 28.2 min.

Turning to `CNC(=N)NCCC[C@H](NC(=O)[C@H](CC(C)C)NC(=O)NNC(=O)[C@H](Cc1ccccc1)NC(=O)[C@H](CO)NC(=O)[C@H](CC(N)=O)NC(=O)[C@H](Cc1ccncc1)NC(=O)[C@H](CC(N)=O)NC(=O)[C@H](N)Cc1ccc(O)cc1)C(=O)N[C@@H](Cc1ccccc1)C(N)=O` [Compound No. 286, D-Tyr-Asn-Pya(4)-Asn-Ser-Phe-AzaGly-Leu-Arg(Me)-Phe-NH2] (H-[dY]N[4Pal]NSF[azaGly]L[Arg(Me)]F-NH2), the “Specific Activity (intracellular Ca ion level-increasing activity)” value at hOT7T175 [3] was 2. For the same molecule, the IC50 in data set [1] (setting [5]) was 1.83e-08 M.

`CNC(N)=NCCC[C@H](NC(=O)[C@H](CC(C)C)NC(=O)NNC(=O)[C@H](Cc1ccccc1)NC(=O)[C@H](CO)NC(=O)[C@H](CC(N)=O)NC(=O)[C@H](Cc1ccncc1)NC(=O)[C@H](CC(N)=O)NC(=O)[C@H](N)Cc1ccc(O)cc1)C(=O)N[C@@H](Cc1ccccc1)C(N)=O` [Compound No. 286, D-Tyr-Asn-Pya(4)-Asn-Ser-Phe-AzaGly-Leu-Arg(Me)-Phe-NH2] (H-[dY]N[4Pal]NSF[azaGly]L[Arg(Me)]F-NH2) yielded a half-life at 100 µM in “in vitro” of 57.5 min. On hOT7T175 [4], this molecule registered an IC50 of 17 nM.

As for `CNC(N)=NCCC[C@H](NC(=O)[C@H](CC(C)C)NC(=O)CNC(=S)[C@H](Cc1ccccc1)NC(=O)[C@H](CO)NC(=O)[C@H](CC(N)=O)NC(=O)[C@H](Cc1c[nH]c2ccccc12)NC(=O)[C@H](CC(N)=O)NC(=O)[C@H](N)Cc1ccc(O)cc1)C(=O)N[C@@H](Cc1ccccc1)C(N)=O` [Compound No. 296, D-Tyr-Asn-Trp-Asn-Ser-PheΨ(CSNH)Gly-Leu-Arg(Me)-Phe-NH2] (H-[dY]NWNS[X11]L[Arg(Me)]F-NH2), in the data set “in vitro”, the half-life at 100 µM was determined as 47.2 min.

For the molecule `CNC(=N)NCCC[C@H](NC(=O)[C@H](CC(C)C)NC(=O)NNC(=O)[C@H](Cc1ccccc1)NC(=O)[C@H](CO)NC(=O)[C@H](CC(N)=O)NC(=O)[C@H](Cc1ccncc1)NC(=O)[C@@H](CC(N)=O)NC(=O)[C@H](N)Cc1ccc(O)cc1)C(=O)N[C@@H](Cc1ccccc1)C(N)=O` [Compound No. 303, D-Tyr-D-Asn-Pya(4)-Asn-Ser-Phe-AzaGly-Leu-Arg(Me)-Phe-NH2] (H-[dY][dN][4Pal]NSF[azaGly]L[Arg(Me)]F-NH2), on hOT7T175 [3], the “Specific Activity (intracellular Ca ion level-increasing activity)” value came out at 5. For the same molecule, in data set [1] (setting [5]), the IC50 was 4.12e-08 M.

With `CNC(=N)NCCC[C@H](NC(=O)[C@H](CC(C)C)NC(=O)CNC[C@H](Cc1ccccc1)NC(=O)[C@H](CO)NC(=O)[C@H](CC(N)=O)NC(=O)[C@H](Cc1c[nH]c2ccccc12)NC(=O)[C@H](CC(N)=O)NC(=O)[C@H](N)Cc1ccc(O)cc1)C(=O)N[C@@H](Cc1ccccc1)C(N)=O` [Compound No. 308, D-Tyr-Asn-Trp-Asn-Ser-PheΨ(CH2NH)Gly-Leu-Arg(Me)-Phe-NH2], on hOT7T175 [3], the “Specific Activity (intracellular Ca ion level-increasing activity)” value amounted to 2. Further, the half-life at 100 µM in the data set “in vitro” turned out to be 13.2 min.

Consider `CNC(=N)NCCC[C@H](NC(=O)[C@H](CC(C)C)NC(=O)CC(=O)N[C@H](Cc1ccccc1)NC(=O)[C@H](CO)NC(=O)[C@H](CC(N)=O)NC(=O)[C@H](Cc1c[nH]c2ccccc12)NC(=O)[C@H](CC(N)=O)NC(=O)[C@H](N)Cc1ccc(O)cc1)C(=O)N[C@@H](Cc1ccccc1)C(N)=O` [Compound No. 319, D-Tyr-Asn-Trp-Asn-Ser-PheΨ(NHCO)Gly-Leu-Arg(Me)-Phe-NH2], for which the half-life at 100 µM in data set [2] was found to be 33 min. In addition, the “Specific Activity (intracellular Ca ion level-increasing activity)” value at hOT7T175 [3] came to 3.
